Converted amounts (≈) assume the structure as drawn. “Also recorded” adds a separate entry of the source.
Assays:
mCXCR2 = target: T1, mCXCR2 (Mus musculus, UniProt P35343); test: In vitro inhibition of chemotaxis, mouse bone marrow cells to mCXCL1; format: cell-based; details: in 100% serum
T1 construct: endogenous in cells; host or cells: mouse bone marrow cells (from the earlier reading's assay name)
T1 sequence (P35343 1-359): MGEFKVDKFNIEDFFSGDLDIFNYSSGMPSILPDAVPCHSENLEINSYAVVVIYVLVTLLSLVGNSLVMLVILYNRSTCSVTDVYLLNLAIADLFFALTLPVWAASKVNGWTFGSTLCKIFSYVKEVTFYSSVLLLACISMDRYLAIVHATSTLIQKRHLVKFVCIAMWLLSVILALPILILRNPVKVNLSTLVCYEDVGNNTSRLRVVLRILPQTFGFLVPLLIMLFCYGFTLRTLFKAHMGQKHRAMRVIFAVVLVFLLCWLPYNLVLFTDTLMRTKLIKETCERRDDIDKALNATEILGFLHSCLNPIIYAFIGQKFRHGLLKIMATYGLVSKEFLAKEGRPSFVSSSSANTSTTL
Procedure: For in vitro determination of chemokine receptor inhibitor activity, Compound 1.136 was dissolved in DMSO to generate a stock concentration of 10 mM that was further diluted in chemotaxis migration buffer (HBSS, 1% BSA, 1% HEPES) to create a 10-point inhibitor gradient ranging from 100 nM-0.01 nM. Migration assay was then run in 100% mouse serum in response to rmCCL20 for CCR6 activity or rmCXCL1 for CXCR2 activity using ChemoTx plates (Neuroprobe, Gaithersburg Md.) and assessed by fluorescence staining of migrated cells with CyQuant (Thermo Fisher).

mCCR7 = target: T2, mCCR7 (Mus musculus, UniProt P47774); test: Chemotaxis of mouse splenocytes to mCCL19; format: cell-based; details: in serum; unit inferred
T2 construct: endogenous in cells; host or cells: mouse splenocytes (from the earlier reading's assay name)
T2 sequence (P47774 25-378): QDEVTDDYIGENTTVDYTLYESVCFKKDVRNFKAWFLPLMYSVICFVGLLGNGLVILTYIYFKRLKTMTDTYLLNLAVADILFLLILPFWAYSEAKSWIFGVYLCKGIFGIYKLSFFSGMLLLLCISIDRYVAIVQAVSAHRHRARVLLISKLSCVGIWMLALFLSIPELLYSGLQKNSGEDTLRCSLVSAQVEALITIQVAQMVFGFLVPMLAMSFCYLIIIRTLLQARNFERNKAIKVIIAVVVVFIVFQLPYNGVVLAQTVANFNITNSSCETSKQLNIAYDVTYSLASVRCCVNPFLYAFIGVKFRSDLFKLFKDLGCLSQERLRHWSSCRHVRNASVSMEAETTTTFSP

mCXCR4 = target: T3, mCXCR4 (Mus musculus, UniProt P70658); test: Chemotaxis of mouse BaF3-WT to mCXCL12; format: cell-based; details: in serum; unit inferred
T3 construct: endogenous in cells; host or cells: mouse BaF3-WT cells (from the earlier reading's assay name)

[1] = Plasma concentrations at trough after s.c. q.d. dosing; format: in vivo; details: Balb/c, mouse, subcutaneous, 24 hours post final dose (day 5), mice
Procedure: (§1) For in vivo dosing, mice were dosed subcutaneously with Compound 1.136 once daily (s.c. q.d. in 1% HPMC) at 90 mg/kg unless stated otherwise, starting at day 0 of a study. The in vivo dose was predicted based on in vitro potency and the pharmacokinetic response to a single dose in mice. The minimum antagonist concentration (at trough) to fully cover a gradient-sensing chemoattractant receptor has been determined to correspond with the IC90 concentration (Schall, T. J., and A. E. Proudfoot. 2011. Overcoming hurdles in developing successful drugs targeting chemokine receptors. Nat Rev Immunol 11: 355-363).

[2] = test system: IL-36α-injected ears of Balb/c mice; test: H&E histology and epidermal thickness of IL-36α-injected ears; format: in vivo, mouse
Procedure: as §1
For hematoxylin and eosin (H&E) staining, ear tissue was initially fixed in paraformaldehyde for paraffin embedding. Samples were processed by standard procedures. Epidermal thickness was measured as the average of 7 measurements made along the center third (the area containing the lesion) of the length of the H&E stained ear sections using Photoshop CS4 software (Adobe®)

[3] = test system: CD4 T cells, neutrophils and inflammatory dendritic cells within IL-36-treated skin; test: Flow cytometry of leukocytes accumulating in IL-36-treated skin; format: in vivo, mouse; details: after 4 daily IL-36α ear injections; Compound 1.136 90 mg/kg/day s.c.; α-IL-17RA 200 μg/mouse/day i.p.; 90 mg/kg/day
Procedure: as §1
Flow cytometry of leukocytes. Ears or excised skin samples were digested in collagenase A and 1 U/ml DNAse I with agitation for 30 min at 37° C. Cells were then dislodged from skin, filtered through a […] sieve, washed and re-suspended in FACS buffer (PBS with 10% FBS) for analysis.
Directly conjugated Monoclonal antibodies were from R&D Systems (Minneapolis, Minn.), BioLegend (San Diego, Calif.), or eBioscience/ThermoFisher (San Diego, Calif.). CD45.2 (104) in AlexaFluor488, Ly6C (HK1.4) in PE, CD90.2 (30-H12) in Per CP-Cy5.5, TCRVγ4 (UC3-10A6) in PE-Cy7, TCRβ (H57-597) in APC, CD4 (GK1.5) in APC-eFluor-780, TCRγδ (GL3) in BV-421, LIVE/DEAD fixable Aqua stain (Molecular Probes, Eugene, Oreg.), CD11c (N418) in BV650, Ly6G (1A4) in BV711 and CD11b (M1/70) in BV785. Flow cytometry data were acquired with a Fortessa (BD Biosciences) cytometer and analyzed using FlowJo v10.2

T3 sequence (P70658 whole entry): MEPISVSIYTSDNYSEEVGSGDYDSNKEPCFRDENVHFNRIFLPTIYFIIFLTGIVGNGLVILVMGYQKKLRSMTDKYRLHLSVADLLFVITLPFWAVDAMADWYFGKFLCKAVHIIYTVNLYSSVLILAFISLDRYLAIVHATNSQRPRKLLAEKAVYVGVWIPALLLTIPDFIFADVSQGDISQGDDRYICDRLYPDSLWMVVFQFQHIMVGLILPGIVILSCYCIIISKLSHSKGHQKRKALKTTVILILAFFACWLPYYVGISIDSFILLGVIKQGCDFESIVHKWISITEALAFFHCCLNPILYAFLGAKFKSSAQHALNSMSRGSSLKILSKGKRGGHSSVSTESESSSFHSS

IC50 (mCXCR2; read-out: IC50 on mouse CXCR2, in vitro inhibition of chemotaxis): 0.02 µM | IC90 (mCXCR2; read-out: IC90 for CXCR2 inhibition): 0.145 µg/mL (≈ 0.33 µM) | IC50 (mCCR7): 6 µM | IC50 (mCXCR4): > 10 µM | concentration at 24 h ([1]; 30 mg/kg s.c. q.d. in 1% HPMC): 267 ± 18 ng/mL | concentration at 24 h ([1]; 60 mg/kg s.c. q.d. in 1% HPMC): 323 ± 20 ng/mL | concentration at 24 h ([1]; 90 mg/kg s.c. q.d. in 1% HPMC): 973 ± 19 ng/mL
Compound: CCC(C)(C)[C@@H](Nc1c(Nc2c(F)ccc3c2C(=O)N[C@H]3C)c(=O)c1=O)c1ccc(C)o1 [Compound 1.136]
IL-36α-mediated epidermal thickness ([2]; H&E ear sections after 4 daily IL-36α treatments, Compound 1.136 90 mg/kg/day s.c., anti-IL17RA 200 μg/mouse/day IP, 90 mg/kg/day): significantly reduced IL-36α-mediated epidermal thickness; also recorded: substantially reduces epidermal thickness | Stratum corneum and leukocyte infiltration in histology ([2]; H&E sections after 4 days of treatment, Compound 1.136 90 mg/kg daily): the stratum corneum remained intact and leukocyte infiltration was reduced | Histology of IL-36α-injected ears: dermal, epidermal and overall skin thickness ([2]; H&E sections after 4 days of treatment, Compound 1.136 90 mg/kg daily, 90 mg/kg): reduced IL-36α-induced dermal, epidermal and overall skin thickness; also recorded: substantially improves histology of IL-36α-injected ears | Accumulation of CD4+ T cells within IL-36-treated skin [3]: significantly reduced the accumulation; also recorded: significantly reduces accumulation | Accumulation of inflammatory dendritic cells (iDC) within IL-36-treated skin [3]: significantly reduced the accumulation; also recorded: significantly reduces accumulation | Accumulation of neutrophils within IL-36-treated skin [3]: significantly reduced the accumulation; also recorded: significantly reduces accumulation
